Earlier results on 1 molecule are cited in patent publication US20110224120A1, “WASHING, CLEANING, POST-TREATING OR AUXILIARY WASHING AGENT CONTAINING SILVER” (Henkel AG & Co. KGaA, priority 2008, published 2011).

For this data set the following is noted: Kanicky et al., Langmuir 2000, 16, 172-177.

On to `CCCCCCCCCCCCCC(=O)O` [myristic acid], for which the pKa value was 8.15.
